The values below come from US20250367225A1 (priority 2022, published 2025).

“Also recorded” adds a separate entry of the source. Read-outs that look alike come from different tables or passages of the source.

For data set [1], the system named is ic-SARS-COV-2-mNeon infection in Huh7 cells. In kind it is cell-based, human. The following applies: for inhibition of ic-SARS-COV-2-mNeon infection by supernatant of stimulated human iNKT cells: 1 μg/mL lipid, iNKT + HeLa-hCD1d 24 h, supernatant on Huh7 cells.
The conditions of data set [2]: up to 100 μg intramuscularly; cited from earlier work.
In a further data set the test system is human iNKT cells. The following applies: human iNKT cells in vitro; cited from earlier work.
In a further data set the test system is cytokines/chemokines. Kind of data set: Cytokine/chemokine 31-Plex profile after intranasal administration. In kind it is in vivo, BALB/c mice. The following applies: 2 μg IN; one day after; BAL, nasal turbinate and lung homogenates, sera.
The test system of another data set is mouse iNKT cells. The following applies: mouse iNKT cells in vitro; cited from earlier work.
Data set [3] is described as follows: Toxicity noted in mice in the current study. Type of data set: in vivo. An excerpt: (§1) Without being bound by theory, 7DW8-5 can be an agent for pre-exposure prophylaxis to prevent infections by SARS-COV-2, RSV, influenza virus, and possibly other clinically important respiratory viruses. It is a chemical compound that is thermostable and thus simple to ship and store, cheap to manufacture, and easy to administer intranasally. It is expected that 7DW8-5 is similarly effective in people. […] Second, iNKT cells constitute up to 1% of peripheral blood mononuclear cells in both humans and mice^38,39, although the variability is greater among humans^38.

The next data set deals with IFNγ. In kind it is in vivo, BALB/c mice. The following applies: 2 μg IN; 24 h; nasal turbinate and lung homogenate supernatants, sera.
The subject of data set [4] is splenocytes. Kind of data set: IFN-γ-secreting splenocytes in response to glycolipids in culture (hamster). Type of data set: cell-based. From the text: (§2) FIGS. 12A-B show relative number of IFN-γ-secreting splenocytes in hamster versus mouse in response to glycolipids in culture.
(§3) The relative number of IFN-γ-secreting splenocytes in hamster versus mouse in response to glycolipids in culture are shown in FIGS. 12A-B. 7DW8-5 administration affects IFN-γ-secreting splenocyte numbers in hamsters as shown in FIG. 12A. Cytokine induction

A further data set concerns SARS-COV-2 (USA/WA1). Kind of data set: Direct antiviral effect against SARS-COV-2 in Vero E6 cells (CPE). In kind it is cell-based. The conditions noted are these: Vero E6, MOI 0.1, 70 h. Here is the method:
After 30 min, SARS-COV-2 (USA/WA1) was added to each well to final MOI 0.1. Cells were incubated at 37 °C/5% CO2 for 70 h prior to scoring CPE. Percent inhibition was calculated from fold reduction in CPE over control wells receiving no drug. Remdesivir (RDV) was used as a positive control for the assay. Phosphatidylethanolamine (PE) and Biotin-phosphatidylethanolamine (B-PE) were used as a negative control. […] C57BL/6 mice (N=10) were given 2 μg of 7DW8-5 or saline by IN route 2 days before intranasal challenge with 5,000 pfu (lethal dose) of the PR8 strain. Kaplan-Meier Survival curve was plotted.

Data set [5] has as its system influenza A virus (H1N1) PR/8/34 (PR8) strain. Kind of data set: Influenza A PR8 challenge of C57BL/6 mice. In kind it is in vivo.
The test system of the next data set is lung mononuclear cells. Kind of data set: Single-cell gene-expression analysis of lung mononuclear cells. In kind it is in vivo, BALB/c mice. The conditions noted are these: 2 μg IN; 24 h; lung CD45+ cells.
For data set [6], the system named is splenocytes. Kind of data set: IFN-γ-secreting splenocytes in response to glycolipids in culture (mouse). In kind it is cell-based.
From the text: as §2, §3

A short description of another data set: Thermostability (stated). The conditions noted are these: stated in discussion, no test described. In kind it is physicochemical.
A further data set relates to human RSV A2 strain. In kind it is in vivo, BALB/c mice. The conditions noted are these: 2 μg IN 2 days prior, 600,000 pfu RSV A2.
Data set [7] in a line: Toxicity noted in hamsters in the current study. In kind it is in vivo.
From the text: as §1

For data set [8] the following is noted: 6 IV doses of 0.12 mg/kg, cancer patients; cited from earlier work.

As for `CCCCCCCC/C=C\CCCCCCCC(=O)OC[C@H](COP(=O)(O)OCCNC(=O)CCCCCN)OC(=O)CCCCCCC/C=C\CCCCCCCC` [1,2-dioleoyl-sn-glycero-3-phosphoethanolamine-N-(hexanoylamine), reference compound], the “inhibition of ic-SARS-COV-2-mNeon infection by supernatant of stimulated human iNKT cells” value in [1] was “not”.
`CCCCCCCCCCCCCC[C@@H](O)[C@@H](O)[C@H](CO[C@H]1O[C@H](CO)[C@H](O)[C@H](O)[C@H]1O)NC(=O)CCCCCCCCCCc1ccc(F)cc1` [7DW8-5]: the adverse reactions entry in data set [2] is listed as “did not lead to any adverse reactions”. Besides, the immunostimulatory activity result with human iNKT cells is reported as “potent stimulatory effect”. The “cytokines/chemokines incl. IFN-γ, IL-5, IL-6, IP-10, TNF-α, MCP1, MIG” value in the data set on cytokines/chemokines is on record as “Marked upregulation”. Besides, the “immunostimulatory activity compared with α-GalCer” value in the data set on mouse iNKT cells is “even more potent immunostimulatory activity”. Moreover, the toxicity result in data set [3] and in [7] was “lack of toxicity” throughout. The “inhibition of ic-SARS-COV-2-mNeon infection by supernatant of stimulated human iNKT cells” value in data set [1] was “display anti-viral activity; also recorded: significantly inhibit”. Further, the “inhibition by supernatant with neutralizing anti-human IFN-γ Ab added” value in data set [1] (anti-human IFN-γ antibody 1 μg/mL) is “inhibited; also recorded: completely abolished”. In addition, in the data set on IFNγ, the “IFN-γ induction by ELISA” value was “No evidence of IFN-γ induction; also recorded: minimal level”. In addition, in the data set on splenocytes [4], the IFN-γ-secreting splenocyte numbers entry was “affects”. The “direct antiviral activity against SARS-COV-2 in vitro” value with SARS-COV-2 (USA/WA1) is recorded as “no direct antiviral activity; also recorded: lack of a direct antiviral effect”. Moreover, the body weight entry is “significantly maintained body weight” in data set [5] (2 μg IN 2 days prior, 5,000 pfu PR8, day 3) and “significantly prevented weight loss” in the data set with human RSV A2 strain. Also, the body weight loss entry in data set [5] (2 μg IN one day before 200 pfu PR8, day 3 (FIG. 7)) is given as “lack of body weight loss”; in data set [5] (2 μg IN, 5000 pfu PR8, monitored every day after challenge (FIG. 8C)), “ameliorated”. In addition, the survival in data set [5] (2 μg IN, lethal dose 5×10^3 PFU PR8, all control mice died by Day 10) is 8 of 10 and higher probability of survival. For the same molecule, the “IFN-γ production in proliferative NK cells, T cells, iNKT cells (single-cell analysis)” value with lung mononuclear cells is “apparent shift toward IFN-γ production”. In the data set on splenocytes [6], the IFN-γ-secreting splenocytes result is reported as “increases”. In addition, the thermostability entry in the data set “Thermostability (stated)” was “thermostable”. The “virus replication in lung tissues” value with human RSV A2 strain (day 4, TCID50 in Hep2 cells) is “inhibited virus replication; also recorded: decreased”.
In the case of `CCCCCCCCCCCCCCCCCCCCCCCCCC(=O)NC(CO[C@H]1O[C@H](CO)[C@H](O)[C@H](O)[C@H]1O)[C@H](O)[C@H](O)CCCCCCCCCCCCCC` (stereo partly drawn) [α-GalCer, N-[(3S,4R)-3,4-dihydroxy-1-[(2S,3R,4S,5R,6R)-3,4,5-trihydroxy-6-(hydroxymethyl)oxan-2-yl]oxyoctadecan-2-yl]hexacosanamide], the toxicity result in [8] is recorded as “without evidence of toxicity”.
